Laboratory results published in US7825129B2, “Thieno[2,3-c] isoquinolines for use as inhibitors of PARP” (priority 2000, dated 2010).
pIC50: −log10 of the molar value.

Columns and labels:
[1] = target: T1, poly(ADP-ribose) polymerase (PARP) (Bos taurus, UniProt P18493); assay: Activity against purified PARP, [3H]NAD incorporation; type: biochemical; conditions: purified PARP from foetal calf thymus, 37° C., 30 mins; read-out: IC50 of PARP inhibitors tested on enzyme prepared from bovine thymus
T1 construct: purified PARP derived from foetal calf thymus; from tissue; host or cells: foetal calf thymus
Protocol: The activity on PARP was evaluated using purified PARP derived from foetal calf thymus, as per Ito et al. (J. Biol. Chem. […]: 3647, 1979). […] The active fractions were used for the activity tests carried out as per Banasik et al. (J. Biol. Chem. 267: 1569, 1992). […] The reaction was terminated with 10% of trichloroacetic acid and the radioactivity associated with the protein was evaluated in a liquid scintillation spectrometer.

[2] = system: primary neuronal cultures; assay: Post-ischaemic neuronal death in primary neuronal cultures exposed to oxygen and glucose deprivation; type: cell-based; conditions: read-out: IC50 for reducing post-ischaemic neuronal death
Protocol: (§1) 2) The biological activity was evaluated in primary neuronal cultures exposed to oxygen and glucose deprivation (see: Neuropharmacology 38: 1007-[…]) and in vivo in rats with MCA [sic]. The volume of the infarct was measured 72 hrs after the occlusion using a method described previously (Cozzi et al., J. Cerebrali Blood Flow Metabolism 19: 771-777; 1999).

[3] = system: rats with permanent occlusion of the medial cerebral artery; assay: MCAO stroke model in rats, infarct volume; type: in vivo, rat; conditions: 3-10 mg/kg i.p., infarct volume measured 72 hrs after occlusion
Protocol: as §1
In this stroke model, the compound (3-10 mg/kg i.p.) reduced by 40% the volume of necrotic brain induced by the permanent occlusion of the medial cerebral artery.

T1 sequence (P18493 whole entry): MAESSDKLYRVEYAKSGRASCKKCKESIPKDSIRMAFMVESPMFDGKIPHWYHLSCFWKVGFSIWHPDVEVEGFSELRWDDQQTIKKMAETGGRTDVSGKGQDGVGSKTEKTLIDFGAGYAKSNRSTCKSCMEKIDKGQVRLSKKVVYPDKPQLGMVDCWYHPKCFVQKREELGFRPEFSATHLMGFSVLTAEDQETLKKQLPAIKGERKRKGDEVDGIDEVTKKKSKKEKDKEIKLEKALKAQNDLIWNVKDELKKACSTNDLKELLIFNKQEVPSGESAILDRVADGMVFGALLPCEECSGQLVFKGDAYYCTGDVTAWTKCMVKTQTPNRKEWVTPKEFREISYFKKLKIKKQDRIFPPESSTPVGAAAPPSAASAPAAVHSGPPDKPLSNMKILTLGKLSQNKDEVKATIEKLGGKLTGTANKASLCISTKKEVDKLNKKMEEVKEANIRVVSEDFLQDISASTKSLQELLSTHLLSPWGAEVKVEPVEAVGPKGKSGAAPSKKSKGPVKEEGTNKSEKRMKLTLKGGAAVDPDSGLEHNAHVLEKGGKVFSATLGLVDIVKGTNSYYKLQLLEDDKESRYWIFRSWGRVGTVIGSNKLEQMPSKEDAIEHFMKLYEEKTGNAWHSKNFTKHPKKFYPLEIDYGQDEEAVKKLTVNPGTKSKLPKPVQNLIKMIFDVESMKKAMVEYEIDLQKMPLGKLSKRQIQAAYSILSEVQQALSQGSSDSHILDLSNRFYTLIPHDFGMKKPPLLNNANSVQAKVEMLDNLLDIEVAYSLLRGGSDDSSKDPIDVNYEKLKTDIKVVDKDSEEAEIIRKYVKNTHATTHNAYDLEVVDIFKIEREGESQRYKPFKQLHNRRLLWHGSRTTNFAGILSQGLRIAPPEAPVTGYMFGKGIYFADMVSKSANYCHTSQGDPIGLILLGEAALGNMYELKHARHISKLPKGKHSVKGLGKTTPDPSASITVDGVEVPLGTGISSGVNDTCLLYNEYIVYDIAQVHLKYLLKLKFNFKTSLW

| SMILES | pIC50 [1] | melting point | pIC50 [2] | reduction of the volume of necrotic brain [3] |
| --- | --- | --- | --- | --- |
| NC(=O)c1ccccc1 [Benzamide, reference compound] | 4.05 |  |  |  |
| O=c1[nH]c2sccc2c2ccccc12 [Example 1, Thieno[2,3-c]isoquinolin-5(4H)-one] |  |  | ~5.52 | 40% |

Now from value to compound, other results behind:

| pIC50 [1] | melting point | SMILES | pIC50 [2] | reduction of the volume of necrotic brain [3] |
| --- | --- | --- | --- | --- |
| 7.00 | 298 to 301 °C | O=c1[nH]c2sccc2c2c(O)cccc12 [Example 2, 9-Hydroxythieno[2,3-c]isoquinolin-5(4H)-one] |  |  |
| 6.52 | 198 to 200 °C | COc1cccc2c(=O)[nH]c3sccc3c12 [Example 3, 9-Methoxythieno[2,3-c]isoquinolin-5(4H)-one] |  |  |
| 7.30 | 297 to 299 °C | Nc1cccc2c(=O)[nH]c3sccc3c12 [Example 4, 9-Aminothieno[2,3-c]isoquinolin-5(4H)-one] |  |  |
